In US11530244B2, “Cyclic polypeptides for PCSK9 inhibition” (priority 2018, dated 2022):
Read-outs that look alike come from different tables or passages of the source. Starred links: 1 amine or outer side, 2 acyl side, 3 side chain; linkers in the order of their positions; H or OH if unused. Positions of bridges follow the written chain, without caps; N, C: chain ends. Non-standard residues stand in square brackets, D forms with d. Residues, ends and D or L forms follow the SMILES beside them. *: point of attachment. Phe(3-CH2NH2) = O=C([C@H](Cc1cccc(CN[*:3])c1)N[*:1])[*:2]; 2Furoyl(5-aminomethyl) = O=C(c1ccc(CN[*:1])o1)[*:2]; NHCH2C6H4(p)CH2CH2NH = c1cc(CN[*:1])ccc1CCN[*:2]; Ala(imidazol-2-yl) = N[C@@H](Cc1ncc[nH]1)C(=O)O; Phe(4-COOH) = N[C@@H](Cc1ccc(C(=O)O)cc1)C(=O)O; Trp(5-F) = N[C@@H](Cc1c[nH]c2ccc(F)cc12)C(=O)O; Acetyl(2-(4-imidazolyl)) = O=C(Cc1c[nH]cn1)*; X3 = O=C(CCSCc1cc(F)cc(CSCCN[*:1])c1)[*:2]; Pro(cis-4-F) = O=C(O)[C@@H]1C[C@H](F)CN1; X4 = O=C(CCSCc1cccc(CSCCN[*:1])c1)[*:2]; mXylylene = c1cc(C[*:1])cc(C[*:2])c1; AEF = NCCOc1ccc(C[C@H](N)C(=O)O)cc1; Lys(Me2) = CN(C)CCCC[C@H](N)C(=O)O; Asu = N[C@@H](CCCCCC(=O)O)C(=O)O; Hyp = O=C(O)[C@@H]1C[C@@H](O)CN1; αMeP = C[C@@]1(C(=O)O)CCCN1; GABA = NCCCC(=O)O; Mpa = O=C(O)CCS

Biological target: PCSK9 (Homo sapiens (Human), UniProt Q8NBP7)
Assay: PCSK9 Alexa FRET Standard assay (displacement of AlexaFluor647 tagged cyclic peptide Reagent A)
Type: binding
Conditions: PCSK9 Alexa FRET Standard assay, 0.5 nM PCSK9, 20 nM AF cyclic peptide Reagent A
Method in brief: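 TR-FRET displacement: 0.5 nM biotinylated PCSK9 with 1.25 nM Strep-Eu and 20 nM AlexaFluor-tagged cyclic peptide (final) in 50 mM HEPES pH 7.4, 0.15 M NaCl, 5 mM CaCl2, 0.01% BSA, 0.01% P20, ≥2 h at room temperature. IC50 from sigmoidal fit, converted to Ki via peptide KD; falling Eu counts flagged false positives.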

Sequence of PCSK9 (Q8NBP7 153-692): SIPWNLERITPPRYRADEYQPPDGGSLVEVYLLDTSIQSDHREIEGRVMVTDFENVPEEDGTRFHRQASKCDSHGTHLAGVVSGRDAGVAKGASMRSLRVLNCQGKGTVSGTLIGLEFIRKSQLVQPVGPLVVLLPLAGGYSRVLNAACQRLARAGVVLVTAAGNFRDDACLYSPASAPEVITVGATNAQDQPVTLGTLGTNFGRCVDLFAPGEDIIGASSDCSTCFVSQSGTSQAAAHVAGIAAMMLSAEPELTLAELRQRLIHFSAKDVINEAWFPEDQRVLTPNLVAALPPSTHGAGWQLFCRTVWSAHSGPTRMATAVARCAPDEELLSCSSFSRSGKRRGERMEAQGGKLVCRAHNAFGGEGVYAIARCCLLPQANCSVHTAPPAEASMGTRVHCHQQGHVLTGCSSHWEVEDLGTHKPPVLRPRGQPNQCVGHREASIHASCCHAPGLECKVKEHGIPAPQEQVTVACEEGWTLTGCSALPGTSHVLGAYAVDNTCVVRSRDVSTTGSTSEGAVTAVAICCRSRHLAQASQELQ

| SMILES | IC50 [µM] | IC50 (read-out: IC50) [µM] |
| --- | --- | --- |
| COc1ccc(C[C@@H]2NC(=O)[C@H]([C@@H](C)O)NC(=O)[C@@H]3C[C@H](F)CN3C(=O)[C@H](Cc3c[nH]c4ccc(F)cc34)NC(=O)[C@H](Cc3c[nH]c4ccc(F)cc34)NC(=O)[C@@H](C)NC(=O)[C@H](CCCCN)NC(=O)[C@@H](NC(=O)Cc3cnc[nH]3)CC(=O)NCCOc3ccc(cc3)C[C@@H](C(N)=O)NC(=O)[C@]3(C)CCCN3C2=O)cc1 [Compound 106] ({Acetyl(2-(4-imidazolyl))}-DK[dA][Trp(5-F)][Trp(5-F)][Pro(cis-4-F)]TY(Me)[αMeP][AEF]-NH2; lactam 1-10) | 1 to 12.1 |  |
| C[C@@]12CCCN1C(=O)[C@H](Cc1ccc(O)cc1)NC(=O)[C@H](Cc1cnc[nH]1)NC(=O)[C@H](CC(=O)O)NC(=O)[C@H](Cc1c[nH]c3ccc(F)cc13)NC(=O)[C@H](Cc1c[nH]c3ccc(F)cc13)NC(=O)C1=CC=C(CNC(=O)CCSCc3cccc(c3)CSC[C@@H](C(N)=O)NC2=O)O1 [Compound 428] ([Mpa][2Furoyl(5-aminomethyl)][Trp(5-F)][Trp(5-F)]DHY[αMeP]C-NH2; linker 1-9 via mXylylene) |  | 21 to 50 |
| COc1ccc(C[C@@H]2NC(=O)[C@H](Cc3ncc[nH]3)NC(=O)[C@H](CC(=O)O)NC(=O)[C@H](Cc3c[nH]c4ccc(F)cc34)NC(=O)[C@H](Cc3c[nH]c4ccc(F)cc34)NC(=O)[C@@H](C)NC(=O)[C@H](CCCCN(C)C)NC(=O)CCSCc3cc(F)cc(c3)CSCCNC(=O)[C@]3(C)CCCN3C2=O)cc1 [Compound 465] (cyclo(D[Ala(imidazol-2-yl)]Y(Me)[αMeP][X3][Lys(Me2)][dA][Trp(5-F)][Trp(5-F)])) |  | 1 to 12.1 |
| COc1ccc(C[C@@H]2NC(=O)[C@H]([C@@H](C)O)NC(=O)[C@@H]3C[C@H](F)CN3C(=O)[C@H](Cc3c[nH]c4ccc(F)cc34)NC(=O)[C@H](Cc3c[nH]c4ccc(F)cc34)NC(=O)[C@@H](C)NC(=O)[C@H](NC(C)=O)CCC(=O)NCCOc3ccc(cc3)C[C@@H](C(N)=O)NC(=O)[C@]3(C)CCCN3C2=O)cc1 [Compound 056] (Ac-[dE][dA][Trp(5-F)][Trp(5-F)][Pro(cis-4-F)]TY(Me)[αMeP][AEF]-NH2; lactam 1-9) |  | 21 to 50 |
| COc1ccc(C[C@@H]2NC(=O)[C@H](Cc3cnc[nH]3)NC(=O)[C@H](CC(=O)O)NC(=O)[C@H](Cc3c[nH]c4ccc(F)cc34)NC(=O)[C@H](Cc3c[nH]c4ccc(F)cc34)NC(=O)[C@@H](C)NC(=O)[C@H](CCCCCC(=O)O)NC(=O)CCSCc3cccc(c3)CSCCNC(=O)[C@]3(C)CCCN3C2=O)cc1 [Compound 426] (cyclo([Asu][dA][Trp(5-F)][Trp(5-F)]DHY(Me)[αMeP][X4])) |  | 1 to 12.1 |
| COc1ccc(C[C@@H]2NC(=O)[C@H](Cc3cnc[nH]3)NC(=O)[C@H](CC(=O)O)NC(=O)[C@H](Cc3c[nH]c4ccc(F)cc34)NC(=O)[C@H](Cc3c[nH]c4ccc(F)cc34)NC(=O)[C@@H](C)NC(=O)CCCNC(=O)c3ccc(cc3)C[C@@H](C(N)=O)NC(=O)[C@]3(C)CCCN3C2=O)cc1 [Compound 432] ([GABA][dA][Trp(5-F)][Trp(5-F)]DHY(Me)[αMeP][Phe(4-COOH)]-NH2; lactam N-9) |  | 1 to 12.1 |
| COc1ccc(C[C@@H]2NC(=O)[C@@H]([C@H](C)O)NC(=O)[C@@H]3C[C@@H](O)CN3C(=O)[C@H](Cc3c[nH]c4ccc(F)cc34)NC(=O)[C@H](Cc3c[nH]c4ccc(F)cc34)NC(=O)[C@@H](C)NC(=O)[C@H](CCCCN)NC(=O)CCSCc3cc(F)cc(c3)CSCCNC(=O)[C@]3(C)CCCN3C2=O)cc1 [Compound 087] (cyclo([Hyp][dT]Y(Me)[αMeP][X3]K[dA][Trp(5-F)][Trp(5-F)])) |  | 21 to 50 |
| COc1ccc(C[C@@H]2NC(=O)[C@H]([C@@H](C)O)NC(=O)[C@@H]3C[C@H](F)CN3C(=O)[C@H](Cc3c[nH]c4ccc(F)cc34)NC(=O)[C@H](Cc3c[nH]c4ccc(F)cc34)NC(=O)[C@@H](C)NC(=O)[C@H](CCCCN)NC(=O)[C@@H](NC(C)=O)CC(=O)NCc3cccc(c3)C[C@@H](C(N)=O)NC(=O)[C@]3(C)CCCN3C2=O)cc1 [Compound 077] (Ac-DK[dA][Trp(5-F)][Trp(5-F)][Pro(cis-4-F)]TY(Me)[αMeP][Phe(3-CH2NH2)]-NH2; lactam 1-10) |  | 21 to 50 |
| COc1ccc(C[C@@H]2NC(=O)[C@H](Cc3cnc[nH]3)NC(=O)[C@H](CC(=O)O)NC(=O)[C@H](Cc3c[nH]c4ccc(F)cc34)NC(=O)[C@H](Cc3c[nH]c4ccc(F)cc34)NC(=O)[C@@H](C)NC(=O)[C@H](NC(C)=O)CCC(=O)NCc3ccc(cc3)CCNC(=O)C[C@@H](C(N)=O)NC(=O)[C@]3(C)CCCN3C2=O)cc1 [Compound 451] (Ac-[dE][dA][Trp(5-F)][Trp(5-F)]DHY(Me)[αMeP]D-NH2; linker 1-9 via NHCH2C6H4(p)CH2CH2NH) |  | 0.1 to 1 |
| COc1ccc(C[C@@H]2NC(=O)[C@H]([C@@H](C)O)NC(=O)[C@@H]3C[C@H](F)CN3C(=O)[C@H](Cc3c[nH]c4ccc(F)cc34)NC(=O)[C@H](Cc3c[nH]c4ccc(F)cc34)NC(=O)[C@@H](C)NC(=O)[C@H](CCCCN)NC(=O)[C@@H](NC(C)=O)CC(=O)NCc3ccccc3C[C@@H](C(N)=O)NC(=O)[C@]3(C)CCCN3C2=O)cc1 [Compound 079] |  | 1 to 12.1 |
